Laboratory results: ChEMBL document CHEMBL5223131, “A first-in-class clinical G-quadruplex-targeting drug. The bench-to-bedside translation of the fluoroquinolone QQ58 to CX-5461 (Pidnarulex)” (Bioorg Med Chem Lett, 2022)
The source made the active and inactive calls. The calls are words filed in the database; no cut-off is given here.

How the values were obtained:
[1] = biological target: DNA topoisomerase 2-alpha (Homo sapiens) (UniProt P11388); assay: Inhibition of human Top2 assessed as decrease in intensity of decatenated DNA using catenated KDNA at 2 to 50 uM; details: dose 2-50 µM
[2] = biological target: T1, DNA topoisomerase II (Homo sapiens) (UniProt P11388+Q02880); assay: Inhibition of human Top2 assessed as decrease in enzyme mediated DNA cleavage at site A at 0.5 to 10 uM; assay type: protein assay; details: dose 0.5-10 µM
[3] = biological target: T1, DNA topoisomerase II (Homo sapiens); assay: Inhibition of human Top2 assessed as decrease in enzyme mediated DNA cleavage at site A at low concentration; assay type: protein assay
[4] = biological target: T1, DNA topoisomerase II (Homo sapiens); assay: Inhibition of human Top2 assessed as decrease in enzyme mediated DNA cleavage at site A at high concentration; assay type: protein assay
[5] = biological target: T1, DNA topoisomerase II (Homo sapiens); assay: Inhibition of human Top2 assessed as decrease in intensity of decatenated DNA using catenated KDNA at 0.5 to 10 uM; assay type: protein assay; details: dose 0.5-10 µM

Sequence of DNA topoisomerase 2-alpha (Homo sapiens) (P11388 whole entry): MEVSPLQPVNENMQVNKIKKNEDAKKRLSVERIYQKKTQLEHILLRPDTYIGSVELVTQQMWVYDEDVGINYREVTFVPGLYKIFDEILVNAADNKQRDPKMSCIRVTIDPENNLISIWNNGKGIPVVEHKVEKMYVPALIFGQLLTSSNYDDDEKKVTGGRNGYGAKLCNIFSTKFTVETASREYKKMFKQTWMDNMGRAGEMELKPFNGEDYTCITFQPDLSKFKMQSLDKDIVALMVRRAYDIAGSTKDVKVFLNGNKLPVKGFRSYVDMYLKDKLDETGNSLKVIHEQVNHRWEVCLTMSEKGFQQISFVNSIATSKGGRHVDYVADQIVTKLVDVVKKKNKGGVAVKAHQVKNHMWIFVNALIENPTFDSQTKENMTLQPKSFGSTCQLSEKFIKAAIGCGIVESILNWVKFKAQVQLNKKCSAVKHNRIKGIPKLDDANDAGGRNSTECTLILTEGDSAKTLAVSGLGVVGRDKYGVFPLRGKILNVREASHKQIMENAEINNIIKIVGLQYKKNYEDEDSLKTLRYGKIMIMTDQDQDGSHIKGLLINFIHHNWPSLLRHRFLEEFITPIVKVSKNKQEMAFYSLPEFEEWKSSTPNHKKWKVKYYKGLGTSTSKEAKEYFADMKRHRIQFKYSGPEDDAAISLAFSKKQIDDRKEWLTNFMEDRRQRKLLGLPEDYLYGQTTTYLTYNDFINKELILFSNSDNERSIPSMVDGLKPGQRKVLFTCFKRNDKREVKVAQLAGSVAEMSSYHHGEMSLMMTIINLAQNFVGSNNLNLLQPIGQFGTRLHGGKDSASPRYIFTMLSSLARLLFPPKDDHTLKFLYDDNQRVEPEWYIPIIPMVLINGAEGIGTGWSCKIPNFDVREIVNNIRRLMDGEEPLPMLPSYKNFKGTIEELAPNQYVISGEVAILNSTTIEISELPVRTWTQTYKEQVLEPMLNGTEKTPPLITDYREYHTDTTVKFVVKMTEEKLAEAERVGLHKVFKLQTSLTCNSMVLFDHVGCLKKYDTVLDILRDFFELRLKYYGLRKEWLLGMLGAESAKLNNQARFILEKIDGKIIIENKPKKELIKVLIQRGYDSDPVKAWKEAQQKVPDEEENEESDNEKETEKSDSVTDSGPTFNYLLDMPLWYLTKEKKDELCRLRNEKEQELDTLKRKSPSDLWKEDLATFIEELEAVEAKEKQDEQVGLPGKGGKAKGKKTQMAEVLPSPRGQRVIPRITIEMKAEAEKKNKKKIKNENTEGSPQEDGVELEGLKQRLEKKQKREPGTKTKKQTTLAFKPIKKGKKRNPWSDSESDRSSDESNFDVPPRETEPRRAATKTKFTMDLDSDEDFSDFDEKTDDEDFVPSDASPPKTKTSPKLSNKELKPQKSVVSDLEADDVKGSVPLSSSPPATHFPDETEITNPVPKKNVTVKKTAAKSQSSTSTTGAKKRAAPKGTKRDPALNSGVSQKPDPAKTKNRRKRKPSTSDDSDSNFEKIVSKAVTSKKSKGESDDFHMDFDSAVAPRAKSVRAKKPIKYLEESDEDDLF

| fold change (FC) [1] | Activity [2] | Activity [3] | Activity [4] | Activity [5] | SMILES |
| --- | --- | --- | --- | --- | --- |
| 5 | Active |  |  |  | N[C@H]1CCN(c2c(F)cc3c(=O)c(C(=O)O)cn4c3c2Oc2cc3c(cc2-4)oc2ccccc23)C1 |
|  |  | Active | inactive | Active | N[C@H]1CCN(c2c(F)cc3c(=O)c(C(=O)O)cn4c3c2Oc2ccccc2-4)C1 |
